Results taken from US20100204097A1, “THERAPEUTIC METHODS USING A THYMUS PEPTIDE” (IMMUNE SYSTEM KEY LTD., priority 2006, published 2010).

Columns and labels:
[1] = tested on: T1/ST2 receptor; assay: Streptavidin bead pull-down of FC-T1/ST2 by biotin-labeled T101, Western blot; type: binding; conditions: T101-bio pre-incubated with FC-T1/ST2 45 min at 4° C., Streptavidin beads
Description: An antibody to the T1/ST2 receptor (FC-T1/ST2), and T101 labeled with biotin (T101-bio) were prepared. Streptavidin beads were incubated for 1 hr. at 4° C. with each of the following: A —T101-bio alone; B—Fc-T1/ST2 alone; C—FC-T1/ST2 pre-incubated with T101-bio for 45 min. at 4° C. After incubation, the beads were spun down and washed 3 times with PBS+0.1% Tween 20. The beads were then loaded on SDS-PAGE and a Western blot was performed using antibody against T1/ST2.

[2] = tested on: murine spleenocytes; assay: Activated caspase 6 in spleenocytes of mice injected ip with LPS and/or T101; type: in vivo; conditions: Balb/c mice
[3] = tested on: U937 cells; assay: Time course of FLIP and caspase 8 in T1/ST2 immuno-precipitated from U937 cells; type: cell-based, human
Description: The samples were obtained from T1/ST2 immuno-precipitated from U937 cells at different time points after incubation with T101. The antibodies used to detect caspase 8 were against the active cleaved species;
In this example, the time course of the effect of T101 on T1/ST2 receptor-related apoptosis was investigated by following the degradation of FLIP and activation of caspase 8. U937 cells were incubated with T101, and at different time points T1/ST2 was immuno-precipitated from the cells and analyzed by Western blot for the presence of caspase 8 and FLIP.

[4] = tested on: U937 cells; assay: Western blot for Bcl-2 and full length caspase 9 in U937 cells; type: cell-based, human
Description: (§1) In FIG. 10, it can be seen that T101 causes an increase in both JNK and MAPK phosphorylation 30 min after T101 application, while no change in the IκB protein level was detected. No change of IκB levels was detected at shorter time points as well. Therefore, it is assumed that the JNK pathway and MAP kinase pathway are activated by T101, while NF-κB remains unactivated. However, not only the caspase 8 pathway is activated upon T1/ST2 activation by T101, but also the caspase 9 dependent cascade is stimulated.

[5] = tested on: human glioblastoma cells; assay: Induction of apoptosis in human glioblastoma cells; type: cell-based; conditions: not shown
Description: (§2) It may be seen in FIG. 9 that in untreated cells (time 0), a significant level of FLIP but very little caspase 8 are observed. […] It is seen that the changes in FLIP and caspase 8 are time-sensitive, with the greatest changes seen at the short time points (10′), after which their levels gradually return to baseline. Similar results were obtained with other cell lines as well.

[6] = tested on: U937 cells; assay: Western blot for the 85 kDa cleavage product of PARP in U937 cells; type: cell-based, human
Description: U937 cells were treated as in FIG. 1 and loaded on SDS-PAGE, except that the gel was treated with antibody against the 85 kDa cleavage product of PARP, which is produced by the cleavage of PARP by caspase 3, and is active in apoptosis.
The lanes of the gel were loaded with lysed cells which had been incubated with the following concentrations of T101: A —100 ng/ml; B —10 ng/ml; C —1 ng/ml; D —100 pg/ml; E —10 pg/ml; F —0 pg/ml (control). The bands show the location of the 85 kDa cleavage product of PARP.
U937 cells were treated as in FIG. 2 except that some of the cells were not treated with FCS, i.e. not activated. The lysed cells were loaded on SDS-PAGE, which was treated with antibody against the 85 kDa cleavage product of PARP.
The lanes of the gel were loaded with lysed cells, as follows: A—activated cells+0 ng/ml T101 (control) [the result with nonactivated cells was similar]; B—nonactivated cells+100 ng/ml T101; C—activated cells+100 ng/ml T101.

[7] = tested on: murine mammary gland carcinoma cells; assay: Induction of apoptosis in murine mammary gland carcinoma cells; type: cell-based; conditions: not shown
Description: as §2

[8] = tested on: U937 cells; assay: Western blot for phosphorylated JNK, phosphorylated MAPK p38 and IκB in U937 cells; type: cell-based, human
Description: The U937 cells were incubated for 30 min. with (+) or without (−) T101;
In order to determine the effect of T101 on various apoptotic signaling pathways, JNK and MAP kinase phosphorylation were measured.
as §1

[9] = Blood cholesterol level in mice after 3 weeks of treatment; type: in vivo; conditions: female Balb/C mice, 50 μg/Kg twice a day for 3 weeks, pooled blood, versus saline
Description: (§3) Two groups of 7 weeks old female Balb/C mice were injected twice a day for 3 weeks with either T101 (50 μg/Kg) (8 mice), or with saline (control) (7 mice). After 3 weeks, blood was collected from the mice and pooled, and the cholesterol level (mg/DL) was measured.

[10] = tested on: U937 cells; assay: Western blot for activated caspase 3 in FCS-activated U937 cells; type: cell-based, human; conditions: U937 cells activated with 10% FCS, 18 hr, 10 pg/ml to 100 ng/ml T101
Description: 10^6 U937 cells, a human leukemic monoblast cell line, were incubated for 18 hr at 37° C. in RPMI buffer+10% fetal calf serum (FCS) with different concentrations of T101. The FCS causes activation of the U937 cells. The cells were then lysed in RIPA buffer in the presence of protease inhibitors, and run on SDS-PAGE. A Western blot of the gel was performed with anti-caspase 3 antibody.
The lanes of the gel were loaded with lysed cells which had been incubated with the following concentrations of T101: A,B—0 pg/ml (control); C—10 pg/ml; D—100 pg/ml; E—1 ng/ml; F—10 ng/ml; G—100 ng/ml.
Thus, T101 can be expected to cause apoptosis in activated monocytes, thereby reducing the possibility of development of a disease associated with activated monocytes, such as atherosclerosis.

[11] = tested on: human lung carcinoma cells; assay: Induction of apoptosis in human lung carcinoma cells; type: cell-based; conditions: not shown
Description: as §2

[12] = Blood liver enzyme levels (AST, ALP, ALT) in mice after 3 weeks of treatment; type: in vivo; conditions: female Balb/C mice, 50 μg/Kg twice a day for 3 weeks, versus saline
Description: as §3
Liver enzymes levels (μg/L) were measured in the blood of the mice of Example 7. The enzymes measured were aspartate aminotransferase (AST), alkaline phosphatase (ALP) and alanine aminotransferase (ALT).

[13] = tested on: murine spleenocytes; assay: Activated caspase 3 in spleenocytes of mice injected ip with LPS and/or T101; type: in vivo; conditions: Balb/c mice
Description: Four groups of 3 mice each (male Balb/c, 6 wks old, approx. 20 gr.) were injected ip with the following: A—saline (control); B—50 μg LPS (induces activation of monocytes); C —50 μg LPS+1 μg T101; D—1 μg T101. After 24 hours the mice were sacrificed and the spleens were removed. The spleens of the mice of each group were combined and lysed in RIPA buffer in the presence of protease inhibitors, and 30×10^6 lysed spleenocytes from each group were run on SDS-PAGE. A Western blot of the gel was performed with antibody against activated caspase 3.

[14] = tested on: human breast cancer cells; assay: Induction of apoptosis in human breast cancer cells; type: cell-based; conditions: not shown
Description: as §2

[15] = tested on: mouse N2A neublastoma cells; assay: Induction of apoptosis in mouse N2A neublastoma cells; type: cell-based; conditions: not shown
Description: as §2

[16] = tested on: mouse spleenocytes; assay: Expression of VEGFA, VEGFR1 and IL-10 in mouse spleenocytes; type: cell-based; conditions: increasing concentrations of T101
Description: HPRT was included as a negative control.
Mouse spleenocytes were challenged without or with increasing concentrations of T101. VEGFA, VEGFR1 and IL-10 expression were compared. VEGFA is a major proangiogenic cytokine, and VEGFR1 is a receptor for VEGFA. HPRT was included as a negative control.

[17] = 1 μg T101 without LPS, 24 hours
[18] = T1/ST2 immuno-precipitate from U937 cells, greatest change at 10′

With “T101: human thymus peptide, 51 amino acids: LHLWLSGEPVQSSGTKDMRSKSDSKRVSDKQLISKAVWWTFFLPSTLWERK (listed as Homo sapiens)” the “binding to the T1/ST2 receptor” value [1] was “binds to the T1/ST2 receptor”, the “caspase 6 in nonactivated spleenocytes” value [2, 17] was “inhibiting caspase 6” and the “caspase 6 in activated spleenocytes” value ([2]; 50 μg LPS+1 μg T101, 24 hours) was “induces caspase 6”. The “active caspase 8” value [3, 18] was “concomitant increase of active caspase 8”, the “level of FLIP” value [3, 18] was “level of FLIP decreases” and the “inactive caspase 8” value ([3]; U937 cells, not shown) was “decrease of the inactive caspase 8”. For the same substance, the Bcl-2 protein [4] was “very pronounced degradation”, the “full-length caspase 9 protein” value [4] was “cleavage of the full-length caspase 9 protein” and the induction of apoptosis [5] was “able to induce apoptosis”. The “cleavage of PARP, activated versus nonactivated monocytes” value ([6]; U937 cells with or without FCS, 100 ng/ml T101) was “induced the cleavage of PARP only in the activated monocytes”, the “amount of the 85 kDa cleavage product of PARP” value ([6]; activated U937 cells, 10 pg/ml T101) was “significantly increased” and the induction of apoptosis [7] was “able to induce apoptosis”. The JNK phosphorylation ([8]; 30 min after T101 application) was “increase”, the MAPK phosphorylation ([8]; 30 min after T101 application) was “increase” and the IκB protein level ([8]; 30 min and shorter time points) was “no change”. For the same substance, the “cholesterol level in the blood” value [9] was “significant decrease”, the “activated caspase 3 (Western blot)” value [10] was “increased activated caspase 3” and the induction of apoptosis [11] was “able to induce apoptosis”. The “liver enzyme levels in the blood (AST, ALP, ALT)” value [12] was “significant decrease”, the “activated caspase 3 in spleenocytes” value [13, 17] was “inhibition of activated caspase 3” and the “activated caspase 3 in spleenocytes” value ([13]; 50 μg LPS+1 μg T101, 24 hours, versus control) was “increased amount of activated caspase 3”. For the same substance, the induction of apoptosis [14] was “able to induce apoptosis”, the induction of apoptosis [15] was “able to induce apoptosis” and the “expression of IL-10” value [16] was “enhanced”. The “expression of VEGFA” value [16] was “inhibits the expression” and the “expression of VEGFR1” value [16] was “inhibits the expression”.
